# From US5945508A, “Substance P treatment for immunostimulation” (priority 1997, dated 1999)
# Read-outs that look alike come from different tables or passages of the source.
# Tests used:
# [1] = system: murine melanoma B16 cancer cells; assay: B16 melanoma lung tumor colonies after tail vein injection; format: in vivo, mice; conditions: for mean number of tumor colonies observed in both lungs: 1×10^4 B16 cells/mouse, 4 weeks post-injection; for reduction in tumors: versus controls
# Source text: The mice were infected with syngeneic murine melanoma B16 cancer cells by tail vein injection. The dose was 1×10^4 B16 tumor cells/mouse. […] The second group of mice was given their substance P aerosol therapy starting one week after the injection of the B16 cells. The aerosol therapy lasted for one week. Both groups of mice and their corresponding controls (injection with B16 cells and no substance P therapy) were killed at 4 weeks post-injection with B16 cells. The data is presented as the mean number of tumor colonies observed in both lungs.
# [2] = system: LP-BM5 murine leukemia retrovirus; assay: Spleen changes and total cell numbers, LP-BM5 mouse AIDS model; format: in vivo, C57BL6 mice
# Protocol: (§1) C57BL6 mice, average weight of 25-30 grams, were infected with the LP-BM5 murine leukemia retrovirus to simulate the human AIDS virus. […] The mice were divided into two groups; LP-BM5 virus only and LP-BM5 virus+substance P aerosol therapy at 1 μM concentration. The mice were killed at 4 and 8 weeks postinoculation.
# interleukin-6 = assay: Spleen cytokine ELISA, LP-BM5 mouse AIDS model; format: in vivo, C57BL6 mice; conditions: SP aerosol 1 μM
# Protocol: as §1
# (§2) Spleen cytokine assays for interleukin-6 and interferon-gamma were conducted by standard mouse ELISA assays. The antibodies for IL-6 and interferon-gamma were purchased from Genzyme, Inc. and Collaborative Research, respectively. Briefly, flat bottom polyvinylchloride 96-well enzyme immunoassay plates were coated with […] monoclonal antibody in 0.05 ml bicarbonate buffer (pH 9.6) to each cytokine. After washing in phosphate-buffered saline containing 0.05% (v/v) Tween-20, plates were incubated in blocking reagent (1% bovine serum albumin in buffer). For the standard curves for each cytokine assay, serial dilutions of recombinant cytokine were added to a set of wells from anti-cytokine coated plates. After two hours at room temperature and three subsequent washings, biotinylated-anti-cytokine will be added to respective wells diluted 1:500 in blocking reagent. All plates were then incubated for an additional two hours at room temperature, washed three times, then […] of 1:5000 avidin-peroxidase was added. After an additional 3 washes, […] of the substrate mixture was added to each well (ABTS plus hydrogen peroxide solution). After an incubation at room temperature for 10-15 minutes, stopping reagent ([…] of a 12 g NaOH in 50 ml water solution) was added. Readings were taken at 405 nm with 490 nm reference using a microELISA spectrophotometric plate reader. Values of interluekin-6 and interferon-gamma were expressed as nanograms/ml.
# interferon-gamma = assay: Spleen cytokine ELISA, LP-BM5 mouse AIDS model; format: in vivo, C57BL6 mice; conditions: SP aerosol 1 μM
# Protocol: as §1, §2
# [3] = system: murine melanoma B16 cancer cells; conditions: 1×10^5 B16 cells, mean (SEM)
# Protocol: The mice were infected with 1×10^5 murine melanoma B16 cancer cells by tail vein injection. […] The second group of mice was treated with the same SP dose starting at one week post-injection for seven days. Survival was assessed to determine the effect of SP aerosol therapy in prolonging life when mice are challenged with a massive cancer challenge.
# [4] = 8 weeks post-infection with LP-BM5
substance,measurement,setting,value
Substance P [SP],mean number of tumor colonies observed in both lungs,[1]; 1 μM SP aerosol 15 min/day 7 days starting immediately (next day),39
same,mean number of tumor colonies observed in both lungs,[1]; SP aerosol for one week starting one week after injection,1
same,reduction in tumors,[1]; therapy starting immediately after B16 cells injection,62.9%
same,reduction in tumors,[1]; therapy starting one week after B16 cells injection,97.0%
same,total cell numbers (spleen) versus LP-BM5 group,"[2]; 4 weeks after LP-BM5 infection, SP aerosol 1 μM",not accompanied by an increase in total cell numbers
same,changes in the mouse spleens,"[2]; LP-BM5 mouse model, substance P aerosol therapy",significant changes in the mouse spleens
same,Spleen Cytokine Production Interleukin-6,interleukin-6; 4 weeks after LP-BM5 infection,0.1334 (0.02) nanogram/ml
same,Spleen Cytokine Production Interleukin-6,interleukin-6; [4],0.1480 (0.02) nanogram/ml
same,Spleen Cytokine Production Interferon-Gamma,interferon-gamma; 4 weeks after LP-BM5 infection,1.5188 (0.21) nanogram/ml
same,Spleen Cytokine Production Interferon-Gamma,interferon-gamma; [4],1.072 (0.09) nanogram/ml
same,Days alive after B16 cells,[3]; 1 μM SP aerosol 15 min/day 7 days starting immediately,31.5 (3.8) Days
same,Days alive after B16 cells,[3]; SP aerosol 7 days starting one week after B16 cells,26.0 (2.0) Days
